Assay in all cases: microbe, parasite or virus in culture
What all share (assay type): cell-based

For assay [1], the system named is HCV 1b RLuc cells (dicistronic genotype 1b Con1 replicon, RLuc reporter). Conditions: Hepatitis C virus, read-out: 1b (nM). The method, boiled down:
(§1)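 Replicon cells stably carrying the listed RLuc-encoding dicistronic replicons were seeded and treated with DMSO serial dilutions of compound (10 mM stocks) diluted into culture medium. After 72 h, cells were lysed and Renilla luciferase activity measured. EC50 was derived by non-linear regression.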

Assay [2] deals with HCV 1a RLuc cells (dicistronic genotype 1a H77 replicon, RLuc reporter). Conditions: Hepatitis C virus, read-out: 1a. The method, boiled down:
as §1

For assay [3], the system named is HCV 2a JFH-1 Rluc cells (dicistronic genotype 2a JFH-1 replicon, RLuc reporter). Conditions: Hepatitis C virus, genotype 2a JFH-1 replicon, read-out: 2a JFH. In a few lines:
as §1
On the technique in general: Replicon systems follow genome replication, usually without infectious particles.

Assay [4] relates to HCV 3a RLuc cells (NS5A chimeric genotype 1b Con1 replicon with consensus genotype 3a NS5A gene). Conditions: Hepatitis C virus. The method, boiled down: as §1
Assay [5] has as its system HCV 4a Rluc cells (NS5A chimeric genotype 1b Con1 replicon with genotype 4a NS5A gene). Conditions: Hepatitis C virus, read-out: 4a. The method, boiled down: as §1
The mark [6] stands for this setting: read-out: 3a, genotype 3a replicon.
The mark [7] stands for this setting: genotype 1a H77 replicon, RLuc reporter.
The mark [8] stands for this setting: read-out: 3a, genotype 3a NS5A chimeric 1b Con1 replicon.
Setting [9] is: 72 h, Table 2, genotype 1a H77 replicon, 72 hours.
Where [10] appears, read: read-out: 3a, Table 2, genotype 3a NS5A chimeric replicon.

pEC50: −log10 of the molar value. Like-named read-outs stand apart in the source and are kept apart here.

`COC(=O)N[C@H](C(=O)N1CCC[C@H]1c1nc2ccc3cc(-c4ccc(-c5cnc([C@@H]6CCCN6C(=O)[C@@H](NC(=O)OC)C6CCOCC6)[nH]5)cc4C#CC4CC4)ccc3c2[nH]1)C(C)C` [Example 350]: the EC50 in assay [1] was determined as 0.02 nM. Besides, the pEC50 in assay [2] (genotype 1a replicon), in assay [3], in assay [4] (setting [6]) and in assay [5] was 9.00 to 12.00 each time.

Regarding `COC(=O)N[C@H](C(=O)N1[C@@H]2CC[C@@H](C2)[C@H]1c1nc2c([nH]1)-c1ccc(-c3ccc4c(ccc5nc([C@@H]6CCCN6C(=O)[C@@H](NC(=O)OC)[C@@H](C)OC)[nH]c54)c3)cc1CC2)C(C)C` [Example 292], the EC50 in assay [1] worked out at 0.059 nM. Also, the pEC50 in assay [2] (genotype 1a replicon), in assay [3], in assay [4] (setting [6]) and in assay [5] was 9.00 to 12.00 each time.

As to `COC(=O)NC(C(=O)N1CCC[C@H]1c1ncc(-c2ccc(-c3ccc4cc(-c5cnc([C@@H]6CCCN6C(=O)C(NC(=O)OC)C(C)C)[nH]5)ccc4c3)cc2)[nH]1)C(C)C` (stereo partly shown) [Example 136], in assay [1], the EC50 was determined as 0.005 nM. Moreover, the pEC50 in assay [2] (setting [7]), in assay [3] (RLuc reporter), in assay [4] (setting [8]) and in assay [5] was 9.00 to 12.00 in each case.

As for `COC(=O)N[C@H](C(=O)N1CC2(C[C@H]1c1ncc(-c3ccc(-c4ccc5c(ccc6nc([C@@H]7CCCN7C(=O)[C@H](NC(=O)OC)c7ccccc7)[nH]c65)c4)cc3)[nH]1)OCCO2)C(C)C` [Example 354], the EC50 in assay [1] turned out to be 0.031 nM. Further, the pEC50 in assay [2] (genotype 1a replicon), in assay [3], in assay [4] (setting [6]) and in assay [5] was 9.00 to 12.00 in each case.

On to `COC(=O)N[C@H](C(=O)N1CCC[C@H]1c1ncc(-c2ccc3cc(-c4ccc(-c5cnc([C@@H]6CCCN6C(=O)OC(C)(C)C)[nH]5)cc4)ccc3c2)[nH]1)C(C)C` [Example 247], for which, in assay [1], the EC50 is 0.758 nM. The pEC50 was 7.36 to 9.00 in assay [2] (setting [7]), under 7.36 in assay [3] (RLuc reporter), under 8.30 in assay [4] (setting [8]) and 9.00 to 12.00 in assay [5].

On to `COC(=O)NC(C(=O)N1[C@@H]2CC[C@@H](C2)[C@H]1c1nc2ccc(-c3ccc4c(c3)C(F)(F)c3cc(-c5c[nH]c([C@H]6CCCN6C(=O)[C@H](NC(=O)OC)c6ccccc6)n5)ccc3-4)cc2[nH]1)[C@@H](C)OC` (stereo partly shown) [Example 75], for which, in assay [1] (72 h), the EC50 turned out to be 0.005 nM. Also, the pEC50 in assay [2] (setting [9]) is 9.00 to 12.00; in assay [3] (72 h, Table 2, 72 hours) it was 9.00 to 12.00; in assay [4] (setting [10]) it was 9.00 to 12.00; in assay [5], 9.00 to 12.00.

For `COC(=O)N[C@H](C(=O)N1CCC[C@H]1c1ncc(-c2ccc3c(c2)COc2c-3ccc3cc(-c4cnc([C@@H]5CCCN5C(=O)[C@H](NC(=O)OC)c5ccccc5)[nH]4)ccc23)[nH]1)C1CCOCC1` [Example 4], the EC50 in assay [1] (72 h) was 0.11 nM. Also, the pEC50 in assay [2] (72 h, Table 1, genotype 1a H77 replicon, 72 hours) was 9.00 to 12.00; in assay [3] (72 h, Table 1, 72 hours), 9.00 to 12.00; in assay [4] (read-out: 3a, Table 1, genotype 3a NS5A chimeric replicon), 9.00 to 12.00; in assay [5], 9.00 to 12.00.

In the case of `COC(=O)N[C@H](C(=O)N1[C@@H]2CC[C@@H](C2)[C@H]1c1ncc(-c2ccc3cc(-c4ccc5c(ccc6nc([C@@H]7CCCN7C(=O)[C@H](NC(=O)OC)c7ccccc7)[nH]c65)c4)ccc3c2)[nH]1)C1CCOCC1` [Example 101], the EC50 in assay [1] (72 h) is 0.011 nM. For the same compound, the pEC50 is 9.00 to 12.00 in assay [2] (setting [9]); 9.00 to 12.00 in assay [3] (72 h, Table 2, 72 hours); 9.00 to 12.00 in assay [4] (setting [10]); 9.00 to 12.00 in assay [5].

As for `COC(=O)NC(C(=O)N1CCC[C@H]1c1ncc(-c2ccc3cc(-c4ccc5c(c4)CCc4nc([C@@H]6CCCN6C(=O)[C@@H](NC(=O)OC)C(C)C)[nH]c4-5)ccc3c2)[nH]1)c1cnccn1` (stereo partly shown) [Example 231], in assay [1], the EC50 was found to be 0.019 nM. For the same compound, the pEC50 in assay [2] (setting [7]) was 9.00 to 12.00; in assay [3] (RLuc reporter), 7.36 to 9.00; in assay [4] (setting [8]), 8.30 to 9.00; in assay [5] it was 9.00 to 12.00.

As to `COC(=O)N[C@H](C(=O)N1CCC[C@H]1c1nc2ccc3cc(-c4ccc(-c5cnc([C@@H]6[C@H]7CC[C@H](C7)N6C(=O)[C@@H](NC(=O)OC)C6CCOCC6)[nH]5)cc4)ccc3c2[nH]1)C(C)C` [Example 62], the EC50 in assay [1] (72 h) is 0.034 nM. Further, the pEC50 is 9.00 to 12.00 in assay [2] (setting [9]); 9.00 to 12.00 in assay [3] (72 h, Table 2, 72 hours); 9.00 to 12.00 in assay [4] (setting [10]); 9.00 to 12.00 in assay [5].

Turning to `COC(=O)NC(C(=O)N1CCC[C@H]1c1ncc(-c2ccc3c(c2)C(F)(F)c2cc(-c4ccc(-c5cnc([C@@H]6CCCN6C(=O)[C@H](NC(=O)OC)c6ccccc6)[nH]5)cc4)ccc2-3)[nH]1)C1CCOCC1` (stereo partly shown) [Example 199], the EC50 in assay [1] was 0.01 nM. Also, the pEC50 in assay [2] (setting [7]) is 7.36 to 9.00; in assay [3] (RLuc reporter), 7.36 to 9.00; in assay [4] (setting [8]), 8.30 to 9.00; in assay [5], 9.00 to 12.00.

On to `COC(=O)N[C@H](C(=O)N1CC(F)(F)C[C@H]1c1ncc(-c2ccc(-c3ccc4cc(-c5cnc([C@@H]6CCCN6C(=O)[C@H](NC(=O)OC)c6ccccc6)[nH]5)ccc4c3)cc2)[nH]1)C(C)C` [Example 232], for which the EC50 in assay [1] was 0.004 nM. Besides, the pEC50 in assay [2] (setting [7]), in assay [3] (RLuc reporter), in assay [4] (setting [8]) and in assay [5] was 9.00 to 12.00 in each case.

With `COC(=O)N[C@H](C(=O)N1CCC[C@H]1c1nc2ccc3cc(-c4ccc(-c5cnc([C@@H]6[C@H]7CC[C@H](C7)N6C(=O)[C@@H](NC(=O)OC)[C@@H](C)OC)[nH]5)c(F)c4)ccc3c2[nH]1)C(C)C` [Example 100], the EC50 in assay [1] (72 h) is 0.004 nM. Also, the pEC50 in assay [2] (setting [9]) was 9.00 to 12.00; in assay [3] (72 h, Table 2, 72 hours), 9.00 to 12.00; in assay [4] (setting [10]) it was 9.00 to 12.00; in assay [5], 9.00 to 12.00.

Consider `CCC(CC)[C@H](NC(=O)OC)C(=O)N1CCC[C@H]1c1ncc(-c2ccc3cc(-c4ccc(-c5cnc([C@@H]6CCCN6C(=O)[C@H](NC(=O)OC)c6ccccc6)[nH]5)cc4)ccc3c2)[nH]1` [Example 286], for which the EC50 in assay [1] came out at 0.003 nM. The pEC50 in assay [2] (setting [7]), in assay [3] (RLuc reporter), in assay [4] (setting [8]) and in assay [5] was 9.00 to 12.00 throughout.

For `COC(=O)N[C@H](C(=O)N1CCC[C@H]1c1nc2c([nH]1)-c1ccc(-c3ccc4cc(-c5cnc([C@@H]6CCCN6C(=O)[C@H](NC(=O)OC(C)(C)C)c6ccccc6)[nH]5)ccc4c3)cc1CC2)C(C)C` [Example 242], the EC50 in assay [1] worked out at 0.008 nM. Moreover, the pEC50 in assay [2] (setting [7]), in assay [3] (RLuc reporter), in assay [4] (setting [8]) and in assay [5] was 9.00 to 12.00 throughout.

With `COC(=O)N[C@H](C(=O)N1CCC[C@H]1c1ncc(-c2ccc3c(c2)CCc2cc(-c4cnc([C@@H]5[C@H]6CC[C@H](C6)N5C(=O)[C@@H](NC(=O)OC)[C@@H](C)OC)[nH]4)ccc2-3)[nH]1)[C@@H](C)OC` [Example 73], the EC50 in assay [1] (72 h) came to 0.038 nM. Moreover, the pEC50 in assay [2] (setting [9]) is 9.00 to 12.00; in assay [3] (72 h, Table 2, 72 hours), 9.00 to 12.00; in assay [4] (setting [10]), 8.30 to 9.00; in assay [5], 9.00 to 12.00.

Consider `COC(=O)NC(C(=O)N1CC2(CC2)C[C@H]1c1ncc(-c2ccc3c(c2)C(F)(F)c2cc(-c4ccc(-c5cnc([C@@H]6CCCN6C(=O)[C@@H](NC(=O)OC)C6CCOCC6)[nH]5)cc4)ccc2-3)[nH]1)C(C)C` (stereo partly shown) [Example 207], for which the EC50 in assay [1] stood at 0.017 nM. In addition, the pEC50 in assay [2] (setting [7]) was 9.00 to 12.00; in assay [3] (RLuc reporter), 7.36 to 9.00; in assay [4] (setting [8]) it was under 8.30; in assay [5], 9.00 to 12.00.

Turning to `COC(=O)N[C@H](C(=O)N1CCC[C@H]1c1ncc(-c2ccc3c(ccc4cc(-c5cnc([C@@H]6[C@H]7CC[C@H](C7)N6C(=O)[C@@H](NC(=O)OC)C(C)C)[nH]5)ccc43)c2)[nH]1)C(C)C` [Example 303], the EC50 in assay [1] turned out to be 0.008 nM. The pEC50 in assay [2] (genotype 1a replicon), in assay [3], in assay [4] (setting [6]) and in assay [5] was 9.00 to 12.00 in each case.

As for `COC(=O)N[C@H](C(=O)N1[C@@H]2CC[C@@H](C2)[C@H]1c1ncc(-c2ccc3c(c2)CCc2cc(-c4cnc([C@@H]5CCCN5C(=O)[C@@H](NC(=O)OC)C(C)OC)[nH]4)ccc2-3)[nH]1)C(C)C` (stereo partly shown) [Example 85], in assay [1] (72 h), the EC50 came out at 0.016 nM. For the same compound, the pEC50 in assay [2] (setting [9]) is 9.00 to 12.00; in assay [3] (72 h, Table 2, 72 hours) it was 9.00 to 12.00; in assay [4] (setting [10]) it was 8.30 to 9.00; in assay [5], 9.00 to 12.00.

For the compound `COC(=O)N[C@H](C(=O)N1CCC[C@H]1c1ncc(-c2ccc3c(c2)CCc2cc(-c4ccc5nc([C@@H]6[C@H]7CC[C@H](C7)N6C(=O)[C@@H](NC(=O)OC)[C@@H](C)OC)[nH]c5c4)ccc2-3)[nH]1)[C@@H](C)OC` [Example 76], in assay [1] (72 h), the EC50 amounted to 0.01 nM. Moreover, the pEC50 in assay [2] (setting [9]) was 9.00 to 12.00; in assay [3] (72 h, Table 2, 72 hours), 7.36 to 9.00; in assay [4] (setting [10]), 8.30 to 9.00; in assay [5], 9.00 to 12.00.

Values taken from US10344019B2 (priority 2010, dated 2019).
